Source: article PMC6218659, “Structures of DPAGT1 Explain Glycosylation Disease Mechanisms and Advance TB Antibiotic Design” (Cell, 2018)

Tests used:
DPAGT1 = target: T1, DPAGT1 (Homo sapiens, UniProt Q9H3H5); test: Radiolabeled substrate enzyme activity assay; assay type: biochemical, H. sapiens; conditions: WT DPAGT1, non-titrated substrate at 200 μM
T1 construct: H. sapiens DPAGT1 (1-408, N-terminal 6 x HIS tag, TEV cleavage site); 6xHis purification tag with TEV site (N, cleaved yes); made in house; host or cells: Spodoptera frugiperda Sf9 insect cells (baculovirus)
T1 sequence (Q9H3H5 1-408): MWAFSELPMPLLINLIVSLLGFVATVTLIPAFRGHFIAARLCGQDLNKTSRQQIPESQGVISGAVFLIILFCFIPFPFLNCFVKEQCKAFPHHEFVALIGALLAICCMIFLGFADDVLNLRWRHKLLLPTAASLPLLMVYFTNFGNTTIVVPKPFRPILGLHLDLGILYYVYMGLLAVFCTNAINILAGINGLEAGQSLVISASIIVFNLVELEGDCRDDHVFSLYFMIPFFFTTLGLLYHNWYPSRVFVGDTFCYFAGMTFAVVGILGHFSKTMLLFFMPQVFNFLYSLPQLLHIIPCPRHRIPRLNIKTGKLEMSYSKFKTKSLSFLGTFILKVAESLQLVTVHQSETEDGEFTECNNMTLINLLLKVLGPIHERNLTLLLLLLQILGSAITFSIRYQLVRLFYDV
Description: 2 μl of 2 μM DPAGT1 WT or mutant proteins in GFB buffer supplemented with 5mM extra MgCl2, 1% OGNG/CHS/cardiolipin and dolichyl monophosphate was combined with 2 μl of UDP-N-acetyl [1-14C] […] The reaction was terminated by the addition of 6 μl of 100% methanol and immediately transferred onto ice. 1 μl of sample was spotted onto a silica coated TLC plate in triplicate and run with a mobile phase consisting of chloroform, methanol, and water at a 65:25:4 ratio respectively. After the run, the TLC plate was dried thoroughly, wrapped in cling film, incubated with a phosphor imaging substrate for 4 days, then phosphor imaged using a Biorad. The pixel density of the spots corresponding to the hydrophobic product was divided by combined pixel density of the product and the substrate and multiplied by the known concentration of substrate added to ascertain the amount of product formed.

DPAGT1 Arg301Cys = target: T2, DPAGT1 Arg301Cys (Homo sapiens, UniProt Q9H3H5, R301C); test: Thermostability assay (label free differential scanning fluorimetry); assay type: binding, H. sapiens; conditions: 50 μM compound
T2 construct: combined with the LIC-adapted primers to amplify the complete DPAGT1 gene, including the desired mutations; 6xHis purification tag with TEV site (N, cleaved yes); made in house; host or cells: Spodoptera frugiperda Sf9 insect cells (baculovirus)
T2 sequence (Q9H3H5 1-408 R301C): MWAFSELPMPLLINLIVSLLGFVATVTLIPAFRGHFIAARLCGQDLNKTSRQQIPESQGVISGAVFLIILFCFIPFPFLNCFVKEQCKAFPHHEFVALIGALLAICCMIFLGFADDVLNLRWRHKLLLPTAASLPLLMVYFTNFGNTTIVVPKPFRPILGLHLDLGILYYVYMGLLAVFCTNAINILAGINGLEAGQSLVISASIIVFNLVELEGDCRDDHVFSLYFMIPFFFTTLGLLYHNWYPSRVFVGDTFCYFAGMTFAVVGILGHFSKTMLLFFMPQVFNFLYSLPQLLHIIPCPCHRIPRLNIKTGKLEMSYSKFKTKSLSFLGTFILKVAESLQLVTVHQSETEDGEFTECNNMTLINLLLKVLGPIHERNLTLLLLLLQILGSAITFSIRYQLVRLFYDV
Description: (§1) Samples with a volume of 40 μl were prepared containing 0.5 mg/ml protein and 50 μM compound or 5% DMSO in GFB. A glass capillary was dipped into each sample, with the capillary held horizontally to ensure that the capillary was full of the sample. The capillaries were placed on the capillary holder on the Nanotemper Prometheus. Technical triplicates of each sample were prepared, and each experiment was conducted with biological triplicates of each protein. PR.ThermControl software was used to run the experiment and analyse the data. A melting curve from 20 °C – 95 °C at 5 °C/min was performed. The minimum of the first derivative of the 330/350nm ratio was used to determine the Tm1/2.

DPAGT1 Arg301His = target: T3, DPAGT1 Arg301His (Homo sapiens, UniProt Q9H3H5, R301H); test: as above; assay type: binding, H. sapiens; conditions: 50 μM compound
T3 construct: combined with the LIC-adapted primers to amplify the complete DPAGT1 gene, including the desired mutations; 6xHis purification tag with TEV site (N, cleaved yes); made in house; host or cells: Spodoptera frugiperda Sf9 insect cells (baculovirus)
T3 sequence (Q9H3H5 1-408 R301H): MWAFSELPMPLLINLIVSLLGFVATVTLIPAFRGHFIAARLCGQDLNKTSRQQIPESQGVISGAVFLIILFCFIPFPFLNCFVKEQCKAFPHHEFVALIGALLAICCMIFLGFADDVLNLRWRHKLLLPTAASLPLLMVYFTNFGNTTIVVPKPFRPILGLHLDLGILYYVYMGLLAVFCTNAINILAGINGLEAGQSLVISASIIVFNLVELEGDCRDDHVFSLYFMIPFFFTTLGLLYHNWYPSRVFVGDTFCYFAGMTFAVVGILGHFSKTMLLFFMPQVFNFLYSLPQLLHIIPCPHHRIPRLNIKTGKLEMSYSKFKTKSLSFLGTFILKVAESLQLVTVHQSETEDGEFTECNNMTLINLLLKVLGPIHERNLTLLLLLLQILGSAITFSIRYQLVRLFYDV
Description: as §1

DPAGT1 Leu168Pro = target: T4, DPAGT1 Leu168Pro (Homo sapiens, UniProt Q9H3H5, L168P); test: as above; assay type: binding, H. sapiens; conditions: 50 μM compound
T4 construct: combined with the LIC-adapted primers to amplify the complete DPAGT1 gene, including the desired mutations; 6xHis purification tag with TEV site (N, cleaved yes); made in house; host or cells: Spodoptera frugiperda Sf9 insect cells (baculovirus)
T4 sequence (Q9H3H5 1-408 L168P): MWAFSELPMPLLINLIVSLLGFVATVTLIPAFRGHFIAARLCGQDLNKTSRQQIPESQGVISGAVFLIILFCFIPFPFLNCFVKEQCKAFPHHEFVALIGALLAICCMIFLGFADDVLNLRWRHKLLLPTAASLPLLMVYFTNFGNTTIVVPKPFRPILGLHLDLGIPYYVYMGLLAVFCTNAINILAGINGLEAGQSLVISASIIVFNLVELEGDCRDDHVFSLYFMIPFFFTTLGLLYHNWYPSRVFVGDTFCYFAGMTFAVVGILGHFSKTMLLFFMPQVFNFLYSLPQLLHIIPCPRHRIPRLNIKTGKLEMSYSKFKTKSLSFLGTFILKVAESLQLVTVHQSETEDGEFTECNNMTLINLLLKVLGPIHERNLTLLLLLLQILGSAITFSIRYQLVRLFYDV
Description: as §1

DPAGT1 Tyr170Cys = target: T5, DPAGT1 Tyr170Cys (Homo sapiens, UniProt Q9H3H5, Y170C); test: as above; assay type: binding, H. sapiens; conditions: 50 μM compound
T5 construct: combined with the LIC-adapted primers to amplify the complete DPAGT1 gene, including the desired mutations; 6xHis purification tag with TEV site (N, cleaved yes); made in house; host or cells: Spodoptera frugiperda Sf9 insect cells (baculovirus)
T5 sequence (Q9H3H5 1-408 Y170C): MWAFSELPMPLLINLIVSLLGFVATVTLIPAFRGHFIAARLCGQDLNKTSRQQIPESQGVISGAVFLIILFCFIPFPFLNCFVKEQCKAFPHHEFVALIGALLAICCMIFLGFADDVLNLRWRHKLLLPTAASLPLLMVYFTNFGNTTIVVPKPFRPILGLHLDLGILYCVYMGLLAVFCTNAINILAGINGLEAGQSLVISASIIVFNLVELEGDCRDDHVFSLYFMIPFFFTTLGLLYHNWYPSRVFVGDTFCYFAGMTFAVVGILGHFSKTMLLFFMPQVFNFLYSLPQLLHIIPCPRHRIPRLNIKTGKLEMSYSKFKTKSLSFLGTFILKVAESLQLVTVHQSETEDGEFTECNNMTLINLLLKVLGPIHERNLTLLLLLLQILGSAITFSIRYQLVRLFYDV
Description: as §1

DPAGT1 Val264Gly = target: T6, DPAGT1 Val264Gly (Homo sapiens, UniProt Q9H3H5, V264G); test: as above; assay type: binding, H. sapiens; conditions: 50 μM compound
T6 construct: H. sapiens DPAGT1 (1-408, Val264Gly, N-terminal 6 x HIS tag, TEV cleavage site); 6xHis purification tag with TEV site (N, cleaved yes); made in house; host or cells: Spodoptera frugiperda Sf9 insect cells (baculovirus)
T6 sequence (Q9H3H5 1-408 V264G): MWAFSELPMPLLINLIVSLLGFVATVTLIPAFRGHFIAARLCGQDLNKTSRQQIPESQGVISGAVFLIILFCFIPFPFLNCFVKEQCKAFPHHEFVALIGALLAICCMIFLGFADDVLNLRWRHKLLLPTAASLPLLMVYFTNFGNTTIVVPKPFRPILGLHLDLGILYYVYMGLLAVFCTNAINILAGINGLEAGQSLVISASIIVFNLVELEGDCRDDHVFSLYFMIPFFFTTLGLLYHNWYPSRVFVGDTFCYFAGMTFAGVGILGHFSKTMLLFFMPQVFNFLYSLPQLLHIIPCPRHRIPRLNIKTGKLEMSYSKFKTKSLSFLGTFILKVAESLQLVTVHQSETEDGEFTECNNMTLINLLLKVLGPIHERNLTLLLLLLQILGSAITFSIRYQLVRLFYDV
Description: as §1

DPAGT1 WT = target: T7, DPAGT1 WT (Homo sapiens, UniProt Q9H3H5); test: as above; assay type: binding, H. sapiens; conditions: 50 μM compound
T7 construct: H. sapiens DPAGT1 (1-408, N-terminal 6 x HIS tag, TEV cleavage site); 6xHis purification tag with TEV site (N, cleaved yes); made in house; host or cells: Spodoptera frugiperda Sf9 insect cells (baculovirus)
T7 sequence (Q9H3H5 1-408): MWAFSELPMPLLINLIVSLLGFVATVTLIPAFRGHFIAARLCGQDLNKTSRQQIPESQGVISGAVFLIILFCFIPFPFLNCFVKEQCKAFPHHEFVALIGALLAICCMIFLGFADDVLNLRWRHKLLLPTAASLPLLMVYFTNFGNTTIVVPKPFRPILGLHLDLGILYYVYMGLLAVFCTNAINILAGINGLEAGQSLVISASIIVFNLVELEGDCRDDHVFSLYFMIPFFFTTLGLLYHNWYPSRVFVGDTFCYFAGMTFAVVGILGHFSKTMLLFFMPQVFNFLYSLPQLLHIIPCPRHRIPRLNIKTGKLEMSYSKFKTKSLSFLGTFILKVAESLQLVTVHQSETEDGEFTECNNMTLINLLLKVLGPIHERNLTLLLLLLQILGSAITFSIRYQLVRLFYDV
Description: as §1

[1] = target: the molecule itself; test: crystal structure; space group P6(5)22, one DPAGT1 monomer in the asymmetric unit; dimer formed through a crystallographic 2-fold axis; apo WT, apo Val264Gly and Val264Gly complexes with UDP-GlcNAc/Mg2+ or tunicamycin
[2] = target: the molecule itself; test: native MS; purified DPAGT1 diluted to 10 uM, buffer exchanged into 200 mM ammonium acetate, 0.16% OGNG; Q Exactive modified for high-mass transmission, positive ion mode

dolichyl phosphate [Dol-P]
kcat (DPAGT1): 0.00333 ± 0.0002 s⁻¹ | Km (DPAGT1; read-out: apparent Km): 36.3 ± 7.2 µM | Thermostability (Tm1/2) with added compound (DPAGT1 Arg301Cys): 56.4±0.5 °C | Thermostability (Tm1/2) with added compound (DPAGT1 Arg301His): 56.2±1.2 °C | Thermostability (Tm1/2) with added compound (DPAGT1 Leu168Pro): 52.5±0.3 °C | Thermostability (Tm1/2) with added compound (DPAGT1 Tyr170Cys): 54.0±1.0 °C | Thermostability (Tm1/2) with added compound (DPAGT1 Val264Gly): 57.2±0.2 °C | Thermostability (Tm1/2) with added compound (DPAGT1 WT): 58.5 °C

B1: H. sapiens DPAGT1 (1-408, Val264Gly, N-terminal 6 x HIS tag, TEV cleavage site) (enzyme, human, UniProt Q9H3H5 1-408, looked up)
chain: MWAFSELPMPLLINLIVSLLGFVATVTLIPAFRGHFIAARLCGQDLNKTSRQQIPESQGVISGAVFLIILFCFIPFPFLNCFVKEQCKAFPHHEFVALIGALLAICCMIFLGFADDVLNLRWRHKLLLPTAASLPLLMVYFTNFGNTTIVVPKPFRPILGLHLDLGILYYVYMGLLAVFCTNAINILAGINGLEAGQSLVISASIIVFNLVELEGDCRDDHVFSLYFMIPFFFTTLGLLYHNWYPSRVFVGDTFCYFAGMTFAGVGILGHFSKTMLLFFMPQVFNFLYSLPQLLHIIPCPRHRIPRLNIKTGKLEMSYSKFKTKSLSFLGTFILKVAESLQLVTVHQSETEDGEFTECNNMTLINLLLKVLGPIHERNLTLLLLLLQILGSAITFSIRYQLVRLFYDV
notes: human DPAGT1, residues 1-408, full length, with the missense variant Val264Gly found in some congenital myasthenic syndrome patients; After TEV cleavage an additional N-terminal serine remains (measured mass 46135 Da); Used for the apo, UDP-GlcNAc and tunicamycin crystal structures; also called Val264Gly DPAGT1; V264G variant; source: Sf9 insect cells (baculovirus), purified (OGNG/CHS extraction, …)
binding result [1]: binds

B2: H. sapiens DPAGT1 (1-408, N-terminal 6 x HIS tag, TEV cleavage site), wild type (enzyme, human, UniProt Q9H3H5 1-408, looked up)
chain: MWAFSELPMPLLINLIVSLLGFVATVTLIPAFRGHFIAARLCGQDLNKTSRQQIPESQGVISGAVFLIILFCFIPFPFLNCFVKEQCKAFPHHEFVALIGALLAICCMIFLGFADDVLNLRWRHKLLLPTAASLPLLMVYFTNFGNTTIVVPKPFRPILGLHLDLGILYYVYMGLLAVFCTNAINILAGINGLEAGQSLVISASIIVFNLVELEGDCRDDHVFSLYFMIPFFFTTLGLLYHNWYPSRVFVGDTFCYFAGMTFAVVGILGHFSKTMLLFFMPQVFNFLYSLPQLLHIIPCPRHRIPRLNIKTGKLEMSYSKFKTKSLSFLGTFILKVAESLQLVTVHQSETEDGEFTECNNMTLINLLLKVLGPIHERNLTLLLLLLQILGSAITFSIRYQLVRLFYDV
notes: human dolichyl-phosphate N-acetylglucosamine-phosphotransferase DPAGT1 (E.C. 2.7.8.15), residues 1-408, full-length wild type; After TEV cleavage an additional N-terminal serine remains (measured mass 46177 Da); Integral membrane protein kept in OGNG/CHS/cardiolipin (or DOPG) detergent-lipid buffer; also called WT DPAGT1; GPT; source: Sf9 insect cells (baculovirus), purified (OGNG/CHS extraction, …)
stoichiometry N [2]: 2
